Holding throughout (test): Kinobeads elution with test compound, mouse brain lysate, MS
Holding throughout (format): binding
Details in all cases: kinase released from kinobeads by specific elution

One experiment relates to T1, RSK1 (Mus musculus).
T1 construct: from tissue; host or cells: mouse brain
Here is the method: (§1) This example illustrates competitive elution of proteins bound to kinobeads with non-modified test compounds (see particularly the fourth aspect of the invention). The kinobeads (as described in example 1) were contacted with mouse brains lysate, bound proteins were eluted with various test compounds and the released proteins were analysed by mass spectrometry.
(§2) The kinobeads were contacted with mouse brain lysate under conditions that allow the binding of the proteins in the lysate to the ligands. The binding conditions were close to physiological by choosing suitable buffer conditions preserving the function of the proteins. After removing non-captured proteins through a gentle washing procedure the bound proteins were contacted with a test compound for protein elution.
(§3) Various test compounds (see section 2.7) were used to release bound proteins following these steps:
(§4) 1. Resuspend beads with bound proteins (section 2.4) in 1×DP buffer/0.2% NP-40 as 1:3 slurry (volume/volume). 2. Transfer 20 μl the 1:3 slurry into MoBiTech columns (equivalent to 5 μl of beads). 3. Place the column into an Eppendorf tube and centrifuge it for 15 seconds at 800 rpm at 4° C. Close columns with lower lid. 4. Add 10 μl elution buffer containing 1.0 mM of the test compound (concentration ranges of 0.1 to 1.0 mM are suitable). As a control use elution buffer containing 2% DMSO or 2% DMF dependent on the solvent used for dissolving the test compound. Close column with upper lid. 5. Incubate for 30 minutes at 4° C. in an Eppendorf incubator at 700 rpm. 6. Open column (first top, then bottom), put column back into siliconized tube (SafeSeal Microcentrifuge Tubes, cat. no 11270, Sorenson BioScience, Inc.). To harvest the eluate centrifuge 2 minutes at 2.000 rpm in table top centrifuge at room temperature. The typical volume of the eluate is approximately 15 μl. 7. Add 5 μl 4× NuPAGE SDS Sample Buffer (Invitrogen, NP0007) containing 100 mM DTT (DTT has to be added just prior to use). 8. Incubate for 30 minutes at 50° C. 9. Add 1/10 volume of 200 mg/ml iodoacetamide, incubate for 30 min at room temperature, protect from light. This reaction leads to the alkylation of cysteines for mass spectrometry. 10. Before loading samples onto the gel, centrifuge samples for 5 minutes at 15.000 rpm in order to remove precipitates. 11. For protein separation apply 10 μl sample to NuPAGE 4-12% Bis-Tris gel (Invitrogen, NPO335). 2.6 Preparation of Stock Solutions used in this Protocol
(§5) Search criteria varied depending on which mass spectrometer was used for the analysis.

The next experiment addresses CSK (Mus musculus, UniProt P41241). Here is the method: as §1, §2, §3, §4, §5
Another experiment concerns YESps. Here is the method: as §1, §2, §3, §4, §5
The target of a further experiment is T2, Erk1ps5 (Mus musculus, UniProt Q63844).
T2 construct: […]; from tissue; host or cells: mouse brain
Here is the method:
as §1, §2, §3, §4, §5

The next experiment deals with FAK (Mus musculus, UniProt P34152). Here is the method:
as §1, §2, §3, §4, §5

The target in a further experiment is T3, PYK2 (Mus musculus, UniProt Q9QVP9).
T3 construct: from tissue; host or cells: mouse brain
Here is the method:
as §1, §2, §3, §4, §5

A further experiment relates to T4, RSK3 (Mus musculus).
T4 construct: from tissue; host or cells: mouse brain
Here is the method:
as §1, §2, §3, §4, §5

The target in the next experiment is T5, JNK2 (Mus musculus, UniProt Q9WTU6).
T5 construct: from tissue; host or cells: mouse brain
Here is the method:
as §1, §2, §3, §4, §5

For the next experiment, the target named is CaMKK2 (Mus musculus, UniProt Q8C078). Here is the method: as §1, §2, §3, §4, §5
Another experiment has as its target T6, JNK1 (Mus musculus, UniProt Q91Y86).
T6 construct: from tissue; host or cells: mouse brain
Here is the method: as §1, §2, §3, §4, §5

A further experiment addresses T7, EphB2 (Mus musculus, UniProt P54763).
T7 sequence (P54763 19-986): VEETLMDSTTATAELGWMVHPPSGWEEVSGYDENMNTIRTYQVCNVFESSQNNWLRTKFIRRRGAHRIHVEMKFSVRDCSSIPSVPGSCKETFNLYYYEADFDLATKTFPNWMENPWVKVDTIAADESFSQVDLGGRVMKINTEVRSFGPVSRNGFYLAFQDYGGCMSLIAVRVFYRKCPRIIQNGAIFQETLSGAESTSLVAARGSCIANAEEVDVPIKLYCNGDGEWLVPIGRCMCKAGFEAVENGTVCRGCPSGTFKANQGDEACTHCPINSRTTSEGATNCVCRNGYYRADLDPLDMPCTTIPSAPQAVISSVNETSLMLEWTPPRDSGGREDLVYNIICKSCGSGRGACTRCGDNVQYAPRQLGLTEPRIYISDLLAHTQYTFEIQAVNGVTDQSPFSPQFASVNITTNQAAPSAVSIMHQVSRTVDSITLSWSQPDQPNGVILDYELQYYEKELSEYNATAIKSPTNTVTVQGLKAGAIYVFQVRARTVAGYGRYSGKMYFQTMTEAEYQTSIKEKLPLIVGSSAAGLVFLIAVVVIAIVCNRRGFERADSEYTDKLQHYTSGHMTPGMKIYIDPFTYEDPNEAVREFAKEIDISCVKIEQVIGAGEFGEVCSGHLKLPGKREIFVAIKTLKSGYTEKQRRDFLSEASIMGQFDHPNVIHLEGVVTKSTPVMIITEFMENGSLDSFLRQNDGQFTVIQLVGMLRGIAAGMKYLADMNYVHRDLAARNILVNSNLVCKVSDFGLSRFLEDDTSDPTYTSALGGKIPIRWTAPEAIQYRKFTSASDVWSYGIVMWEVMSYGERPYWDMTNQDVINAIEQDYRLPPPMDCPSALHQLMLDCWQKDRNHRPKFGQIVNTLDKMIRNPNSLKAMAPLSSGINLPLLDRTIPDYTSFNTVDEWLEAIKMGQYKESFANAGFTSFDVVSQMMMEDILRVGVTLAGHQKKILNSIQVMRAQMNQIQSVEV
Here is the method: as §1, §2, §3, §4, §5

Another experiment deals with FER (Mus musculus, UniProt P70451). Here is the method: as §1, §2, §3, §4, §5
In a further experiment the target is T8, JNK3 (Mus musculus, UniProt Q61831).
T8 construct: from tissue; host or cells: mouse brain
Here is the method:
as §1, §2, §3, §4, §5

Chain of CSK (P41241 whole entry): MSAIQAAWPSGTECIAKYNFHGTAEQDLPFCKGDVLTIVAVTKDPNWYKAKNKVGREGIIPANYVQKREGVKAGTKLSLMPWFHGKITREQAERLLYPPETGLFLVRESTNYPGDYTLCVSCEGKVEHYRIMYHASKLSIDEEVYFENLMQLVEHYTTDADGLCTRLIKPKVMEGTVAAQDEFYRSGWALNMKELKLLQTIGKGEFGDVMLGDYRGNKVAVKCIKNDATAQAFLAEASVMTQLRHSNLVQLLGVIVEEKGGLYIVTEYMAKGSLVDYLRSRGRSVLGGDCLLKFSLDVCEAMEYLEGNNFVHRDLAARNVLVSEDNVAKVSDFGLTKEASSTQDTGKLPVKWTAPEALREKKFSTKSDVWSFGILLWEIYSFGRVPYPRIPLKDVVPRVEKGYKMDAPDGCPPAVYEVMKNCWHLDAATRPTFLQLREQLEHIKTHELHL
T4 sequence (P18653 whole entry): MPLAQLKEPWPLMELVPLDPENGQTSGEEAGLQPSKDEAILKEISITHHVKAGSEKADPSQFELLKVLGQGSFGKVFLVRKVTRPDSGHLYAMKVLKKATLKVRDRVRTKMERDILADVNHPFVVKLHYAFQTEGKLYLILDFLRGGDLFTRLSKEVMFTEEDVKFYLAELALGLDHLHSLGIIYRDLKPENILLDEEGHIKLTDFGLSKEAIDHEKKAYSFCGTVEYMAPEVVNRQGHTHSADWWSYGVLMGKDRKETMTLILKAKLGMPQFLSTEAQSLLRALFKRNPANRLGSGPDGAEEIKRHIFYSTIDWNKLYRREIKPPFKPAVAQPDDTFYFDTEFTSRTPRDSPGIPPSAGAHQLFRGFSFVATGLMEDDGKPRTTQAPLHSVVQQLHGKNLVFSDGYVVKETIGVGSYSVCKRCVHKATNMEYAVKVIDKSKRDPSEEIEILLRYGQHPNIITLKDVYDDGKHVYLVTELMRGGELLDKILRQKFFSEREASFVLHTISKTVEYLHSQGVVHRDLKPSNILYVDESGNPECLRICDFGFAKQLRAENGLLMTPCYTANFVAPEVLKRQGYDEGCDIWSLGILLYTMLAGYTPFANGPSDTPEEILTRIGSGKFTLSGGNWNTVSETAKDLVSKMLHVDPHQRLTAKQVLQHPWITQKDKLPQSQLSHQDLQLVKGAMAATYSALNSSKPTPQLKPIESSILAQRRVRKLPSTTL
Chain of FER (P70451 whole entry): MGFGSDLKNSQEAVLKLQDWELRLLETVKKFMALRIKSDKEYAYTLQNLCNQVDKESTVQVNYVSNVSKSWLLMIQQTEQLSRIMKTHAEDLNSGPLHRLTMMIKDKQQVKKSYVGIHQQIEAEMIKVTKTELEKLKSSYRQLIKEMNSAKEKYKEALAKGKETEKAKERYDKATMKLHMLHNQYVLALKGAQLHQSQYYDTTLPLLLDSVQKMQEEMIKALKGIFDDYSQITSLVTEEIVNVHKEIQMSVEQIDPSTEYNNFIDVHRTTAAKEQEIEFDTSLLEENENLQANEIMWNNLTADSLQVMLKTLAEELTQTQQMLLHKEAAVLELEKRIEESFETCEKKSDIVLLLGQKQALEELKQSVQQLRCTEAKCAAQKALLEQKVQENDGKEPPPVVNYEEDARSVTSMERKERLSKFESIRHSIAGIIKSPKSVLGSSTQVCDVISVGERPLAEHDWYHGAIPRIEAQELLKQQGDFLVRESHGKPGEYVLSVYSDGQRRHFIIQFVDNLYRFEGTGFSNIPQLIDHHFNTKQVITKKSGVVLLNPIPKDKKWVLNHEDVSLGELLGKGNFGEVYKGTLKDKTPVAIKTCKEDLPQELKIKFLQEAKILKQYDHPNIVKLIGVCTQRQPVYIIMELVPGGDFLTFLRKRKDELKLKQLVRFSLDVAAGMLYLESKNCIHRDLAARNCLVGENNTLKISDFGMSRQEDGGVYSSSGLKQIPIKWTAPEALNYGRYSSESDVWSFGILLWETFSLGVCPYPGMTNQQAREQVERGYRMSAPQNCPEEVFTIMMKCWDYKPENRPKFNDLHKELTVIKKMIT
T6 sequence (Q91Y86 whole entry): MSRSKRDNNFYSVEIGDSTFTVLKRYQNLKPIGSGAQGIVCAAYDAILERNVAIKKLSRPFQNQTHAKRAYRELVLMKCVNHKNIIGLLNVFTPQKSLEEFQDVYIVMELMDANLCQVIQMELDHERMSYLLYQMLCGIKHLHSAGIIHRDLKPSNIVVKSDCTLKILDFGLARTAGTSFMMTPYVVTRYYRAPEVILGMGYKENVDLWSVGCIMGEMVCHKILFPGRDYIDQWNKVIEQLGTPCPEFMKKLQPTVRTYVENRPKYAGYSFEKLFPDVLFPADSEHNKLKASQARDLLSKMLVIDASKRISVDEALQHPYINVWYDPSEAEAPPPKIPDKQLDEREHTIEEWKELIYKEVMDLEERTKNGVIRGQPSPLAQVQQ
T1 sequence (Q9WUT3 whole entry): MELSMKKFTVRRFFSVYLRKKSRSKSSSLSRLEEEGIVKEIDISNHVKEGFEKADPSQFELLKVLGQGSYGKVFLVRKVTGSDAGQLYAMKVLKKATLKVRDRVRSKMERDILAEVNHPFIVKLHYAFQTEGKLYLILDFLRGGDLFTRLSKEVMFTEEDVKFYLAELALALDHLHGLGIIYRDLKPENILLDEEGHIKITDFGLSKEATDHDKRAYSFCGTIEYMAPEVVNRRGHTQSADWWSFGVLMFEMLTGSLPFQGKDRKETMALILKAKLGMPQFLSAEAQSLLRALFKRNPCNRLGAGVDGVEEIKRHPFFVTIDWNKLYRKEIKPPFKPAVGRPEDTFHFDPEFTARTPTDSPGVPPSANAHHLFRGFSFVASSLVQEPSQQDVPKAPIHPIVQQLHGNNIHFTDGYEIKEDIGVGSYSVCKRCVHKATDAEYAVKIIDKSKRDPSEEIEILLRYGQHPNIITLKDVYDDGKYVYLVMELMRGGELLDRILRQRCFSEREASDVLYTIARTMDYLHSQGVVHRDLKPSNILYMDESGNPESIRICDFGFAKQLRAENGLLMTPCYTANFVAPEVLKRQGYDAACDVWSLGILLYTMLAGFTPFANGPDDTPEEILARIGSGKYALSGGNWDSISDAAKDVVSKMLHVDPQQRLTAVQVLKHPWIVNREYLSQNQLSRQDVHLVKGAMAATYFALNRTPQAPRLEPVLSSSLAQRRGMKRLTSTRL
T2 sequence (Q63844 2-380 limits assumed): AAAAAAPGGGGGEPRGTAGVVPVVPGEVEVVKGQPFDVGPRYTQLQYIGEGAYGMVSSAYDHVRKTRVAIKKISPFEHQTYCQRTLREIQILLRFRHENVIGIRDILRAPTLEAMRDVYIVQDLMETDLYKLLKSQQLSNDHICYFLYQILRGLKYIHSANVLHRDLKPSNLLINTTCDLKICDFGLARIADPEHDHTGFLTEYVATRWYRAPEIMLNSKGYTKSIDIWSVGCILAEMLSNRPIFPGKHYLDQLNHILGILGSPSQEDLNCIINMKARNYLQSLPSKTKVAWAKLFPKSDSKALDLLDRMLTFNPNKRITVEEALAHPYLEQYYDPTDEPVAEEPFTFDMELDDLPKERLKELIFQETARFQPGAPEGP
T8 sequence (Q61831 whole entry): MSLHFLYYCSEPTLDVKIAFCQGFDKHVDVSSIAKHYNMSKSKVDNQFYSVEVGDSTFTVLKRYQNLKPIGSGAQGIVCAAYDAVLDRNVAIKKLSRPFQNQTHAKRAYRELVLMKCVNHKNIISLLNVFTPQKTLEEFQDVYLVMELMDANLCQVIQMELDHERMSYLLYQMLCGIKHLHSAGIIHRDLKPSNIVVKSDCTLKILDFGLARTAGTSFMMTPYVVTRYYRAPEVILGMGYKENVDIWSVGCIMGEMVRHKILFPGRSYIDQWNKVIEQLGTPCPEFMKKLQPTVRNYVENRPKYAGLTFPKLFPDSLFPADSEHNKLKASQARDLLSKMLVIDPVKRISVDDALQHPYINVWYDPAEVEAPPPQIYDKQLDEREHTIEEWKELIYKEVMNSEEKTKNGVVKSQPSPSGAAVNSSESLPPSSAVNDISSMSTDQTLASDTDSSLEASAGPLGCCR
Chain of CaMKK2 (Q8C078 whole entry): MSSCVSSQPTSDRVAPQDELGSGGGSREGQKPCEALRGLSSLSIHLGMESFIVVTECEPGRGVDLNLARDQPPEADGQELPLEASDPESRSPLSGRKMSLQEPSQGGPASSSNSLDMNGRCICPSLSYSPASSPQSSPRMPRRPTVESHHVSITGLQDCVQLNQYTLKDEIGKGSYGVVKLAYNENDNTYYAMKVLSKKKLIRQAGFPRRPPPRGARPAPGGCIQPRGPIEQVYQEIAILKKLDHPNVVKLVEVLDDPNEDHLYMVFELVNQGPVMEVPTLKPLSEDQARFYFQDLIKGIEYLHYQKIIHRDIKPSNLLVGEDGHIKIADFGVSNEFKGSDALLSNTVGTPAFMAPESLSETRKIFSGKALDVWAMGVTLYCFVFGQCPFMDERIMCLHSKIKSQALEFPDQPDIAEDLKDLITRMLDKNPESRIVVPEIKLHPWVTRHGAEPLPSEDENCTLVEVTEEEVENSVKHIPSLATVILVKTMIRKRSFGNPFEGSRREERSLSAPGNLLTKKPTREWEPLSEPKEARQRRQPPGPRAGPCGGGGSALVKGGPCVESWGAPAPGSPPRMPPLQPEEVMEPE
T5 sequence (Q9WTU6 whole entry): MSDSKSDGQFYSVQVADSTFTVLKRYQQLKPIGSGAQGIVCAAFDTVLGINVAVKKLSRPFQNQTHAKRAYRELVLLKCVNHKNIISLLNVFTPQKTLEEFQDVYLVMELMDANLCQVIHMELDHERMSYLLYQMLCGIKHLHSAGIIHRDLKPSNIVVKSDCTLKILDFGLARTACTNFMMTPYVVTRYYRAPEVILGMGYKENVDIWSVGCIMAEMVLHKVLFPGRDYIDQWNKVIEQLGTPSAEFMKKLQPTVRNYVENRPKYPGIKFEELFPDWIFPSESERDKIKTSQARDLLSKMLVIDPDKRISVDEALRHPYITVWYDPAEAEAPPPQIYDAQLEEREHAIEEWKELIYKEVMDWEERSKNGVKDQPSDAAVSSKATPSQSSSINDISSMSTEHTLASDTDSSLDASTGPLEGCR

`CCCCCCCCCCCCOS(=O)(=O)[O-].[Na+]` [SDS]: in the experiment on RSK1 (Mus musculus), the “mass spectrometry score, RSK1” value is 825 and the “number of identified peptides, RSK1” value was 45. Also, at CSK, the “mass spectrometry score, CSK” value is given as 365 and the “number of identified peptides, CSK” value stood at 15. Also, in the experiment with YESps, the “mass spectrometry score, YESps” value turned out to be 236 and the “number of identified peptides, YESps” value was found to be 13. In addition, on Erk1ps5, the “mass spectrometry score, Erk1ps5” value was found to be 239 and the “number of identified peptides, Erk1ps5” value is given as 8. Further, at FAK, the “mass spectrometry score, FAK” value was determined as 160 and the “number of identified peptides, FAK” value was found to be 6. Moreover, at PYK2, the “mass spectrometry score, PYK2” value stood at 809 and the “number of identified peptides, PYK2” value stood at 39. In addition, the “mass spectrometry score, RSK3” value in the experiment with RSK3 (Mus musculus) came to 107. Further, on JNK2, the “mass spectrometry score, JNK2” value worked out at 369 and the “number of identified peptides, JNK2” value worked out at 20. In addition, on CaMKK2, the “mass spectrometry score, CaMKK2” value was 338 and the “number of identified peptides, CaMKK2” value is given as 10. Moreover, on JNK1, the “mass spectrometry score, JNK1” value is reported as 389 and the “number of identified peptides, JNK1” value worked out at 47. Further, on EphB2, the “mass spectrometry score, EphB2” value was 437 and the “number of identified peptides, EphB2” value is on record as 19. In addition, at FER, the “mass spectrometry score, FER” value was determined as 275 and the “number of identified peptides, FER” value was found to be 11. On JNK3, the “mass spectrometry score, JNK3” value worked out at 447 and the “number of identified peptides, JNK3” value is 27.
Turning to `CNC1CC2OC(C)(C1OC)n1c3ccccc3c3c4c(c5c6ccccc6n2c5c31)C(=O)NC4` (stereo not shown) [CZC9280], in the experiment with RSK1 (Mus musculus), the “mass spectrometry score, RSK1” value stood at 1634 and the “number of identified peptides, RSK1” value was determined as 47. Moreover, at CSK, the “mass spectrometry score, CSK” value is 307 and the “number of identified peptides, CSK” value is recorded as 8. Besides, in the experiment on YESps, the “mass spectrometry score, YESps” value is 480 and the “number of identified peptides, YESps” value amounted to 12. Further, on Erk1ps5, the “mass spectrometry score, Erk1ps5” value is recorded as 71 and the “number of identified peptides, Erk1ps5” value is given as 2. Besides, on PYK2, the “mass spectrometry score, PYK2” value worked out at 1978 and the “number of identified peptides, PYK2” value came to 82. Also, the “mass spectrometry score, RSK3” value in the experiment on RSK3 (Mus musculus) is reported as 721. For the same molecule, on CaMKK2, the “mass spectrometry score, CaMKK2” value was determined as 282 and the “number of identified peptides, CaMKK2” value is given as 10. In addition, at JNK1, the “mass spectrometry score, JNK1” value is recorded as 457 and the “number of identified peptides, JNK1” value is reported as 16. At EphB2, the “mass spectrometry score, EphB2” value is reported as 114 and the “number of identified peptides, EphB2” value is recorded as 4. For the same molecule, at FER, the “mass spectrometry score, FER” value came out at 818 and the “number of identified peptides, FER” value came out at 21. For the same molecule, on JNK3, the “mass spectrometry score, JNK3” value is reported as 363 and the “number of identified peptides, JNK3” value came out at 10.
As for `NCc1ccc(Nc2ncc(F)c(Nc3ccccc3)n2)cc1` [CZC00008004], in the experiment with RSK1 (Mus musculus), the “mass spectrometry score, RSK1” value stood at 312 and the “number of identified peptides, RSK1” value is listed as 9. For the same molecule, in the experiment with YESps, the “mass spectrometry score, YESps” value is 110 and the “number of identified peptides, YESps” value is given as 3. Besides, on Erk1ps5, the “mass spectrometry score, Erk1ps5” value stood at 386 and the “number of identified peptides, Erk1ps5” value is reported as 26. On FAK, the “mass spectrometry score, FAK” value is 257 and the “number of identified peptides, FAK” value amounted to 8. At PYK2, the “mass spectrometry score, PYK2” value is reported as 1228 and the “number of identified peptides, PYK2” value amounted to 58. Further, at JNK2, the “mass spectrometry score, JNK2” value turned out to be 662 and the “number of identified peptides, JNK2” value is recorded as 18. At CaMKK2, the “mass spectrometry score, CaMKK2” value is 522 and the “number of identified peptides, CaMKK2” value came out at 12. On JNK1, the “mass spectrometry score, JNK1” value stood at 590 and the “number of identified peptides, JNK1” value is 48. Further, on EphB2, the “mass spectrometry score, EphB2” value was found to be 149 and the “number of identified peptides, EphB2” value amounted to 5. In addition, at FER, the “mass spectrometry score, FER” value is 100 and the “number of identified peptides, FER” value came to 2. Moreover, at JNK3, the “mass spectrometry score, JNK3” value stood at 642 and the “number of identified peptides, JNK3” value stood at 23.
In the case of `Cn1c(=O)c(-c2c(Cl)cccc2Cl)cc2cnc(Nc3ccc(CN)cc3)cc21` [CZC7324], in the experiment with RSK1 (Mus musculus), the “mass spectrometry score, RSK1” value turned out to be 626 and the “number of identified peptides, RSK1” value was 19. In addition, on CSK, the “mass spectrometry score, CSK” value was determined as 809 and the “number of identified peptides, CSK” value is recorded as 19. In addition, at Erk1ps5, the “mass spectrometry score, Erk1ps5” value was determined as 557 and the “number of identified peptides, Erk1ps5” value is on record as 77. At FAK, the “mass spectrometry score, FAK” value came to 322 and the “number of identified peptides, FAK” value stood at 10. At PYK2, the “mass spectrometry score, PYK2” value was 1401 and the “number of identified peptides, PYK2” value was 42. Moreover, in the experiment on RSK3 (Mus musculus), the “mass spectrometry score, RSK3” value came out at 312. On JNK2, the “mass spectrometry score, JNK2” value is reported as 702 and the “number of identified peptides, JNK2” value worked out at 21. On CaMKK2, the “mass spectrometry score, CaMKK2” value is 101 and the “number of identified peptides, CaMKK2” value turned out to be 3. At JNK1, the “mass spectrometry score, JNK1” value worked out at 448 and the “number of identified peptides, JNK1” value is 17. Besides, at EphB2, the “mass spectrometry score, EphB2” value was 1004 and the “number of identified peptides, EphB2” value is listed as 22. Moreover, at FER, the “mass spectrometry score, FER” value was found to be 388 and the “number of identified peptides, FER” value is recorded as 11. For the same molecule, at JNK3, the “mass spectrometry score, JNK3” value is given as 782 and the “number of identified peptides, JNK3” value turned out to be 49.
